Values of other authors as cited in patent US4483989A, “Synthesis of pyrido[4,3-b]carbazole derivatives” (priority 1973, dated 1984).
Read-outs that look alike come from different tables or passages of the source.

What was measured:
[1] = system: BP 8 tumors; settings: mouse, in vivo; cited from earlier work
[2] = system: Hodgkin's disease; settings: in vivo; cited from earlier work
[3] = system: acute lymphoblastic leukemia; settings: in vivo; cited from earlier work
[4] = system: mouse L 1210 leukemia; settings: in vivo; cited from earlier work
[5] = system: acute myeloblastic leukemia; settings: in vivo; cited from earlier work
[6] = cited from earlier work

## COc1ccc2[nH]c3c(C)c4ccncc4c(C)c3c2c1 [9-methoxy-ellipticine lactate]
[1]
  Oncostatic action in BP 8 tumors: oncostatic action
[2]
  Effectiveness in Hodgkin's disease: ineffective
[3]
  Effectiveness in acute lymphoblastic leukemia: ineffective
[4]
  Oncostatic action in mouse L 1210 leukemia: oncostatic action
[5]
  Effectiveness in acute myeloblastic leukemia: effective
[6]; administered after the antigen
  Immunosuppressive action: has an immunosuppressive action
[6]; administered to humans
  Immunosuppressive action: does not reveal such an activity
